Tests used:
[1] = molecular target: T1, Human CB1 receptor (hCB1) (Homo sapiens, UniProt P21554); assay: hCB1 receptor binding (3H-CP55,940 displacement); conditions: hCB1 membranes, Ki=IC50/(1+[rad]/Kd)
T1 construct: purchased Receptor Biology
Procedure: hCB1 and hCB2 Receptor Binding
Human CB1 receptor from Receptor Biology (hCB1) or human CB2 receptor from BioSignal (hCB2) membranes are thawed at 37° C., passed 3 times through a 25-gauge blunt-end needle, diluted in the cannabinoid binding buffer (50 mM Tris, 2.5 mM EDTA, 5 mM MgCl2, and 0.5 mg/mL BSA fatty acid free, pH 7.4) and aliquots containing the appropriate amount of protein are distributed in 96-well plates. […] The total and non-specific binding are determined in the absence and presence of 0.2 μM of HU210 respectively. The plates are vortexed and incubated for 60 minutes at room temperature, filtered through Unifilters GF/B (presoaked in 0.1% polyethyleneimine) with the Tomtec or Packard harvester using 3 mL of wash buffer (50 mM Tris, 5 mM MgCl2, 0.5 mg BSA pH 7.0). The filters are dried for 1 hour at 55° C. The radioactivity (cpm) is counted in a TopCount (Packard) after adding 65 μl/well of MS-20 scintillation liquid.
Based on the above assays, the dissociation constant (Ki) for a particular compound of the invention towards a particular receptor is determined using the following equation:
[rad] is a standard or reference radioactive ligand concentration at that moment; and
Kd is the dissociation constant of the radioactive ligand towards the particular receptor.

[2] = molecular target: T1, Human CB1 receptor (hCB1); assay: hCB1 GTPγS binding; type: biochemical; conditions: for EC50: hCB1 membranes, GTPγ35S, 10-point dose-response; for Emax: maximal stimulated binding determined with 10 μM Win 55,212-2
Procedure: hCB1 and hCB2 GTPγS Binding
Human CB1 receptor from Receptor Biology (hCB1) or human CB2 receptor membranes (BioSignal) are thawed at 37° C., passed 3 times through a 25-gauge blunt-end needle and diluted in the GTPγS binding buffer (50 mM Hepes, 20 mM NaOH, 100 mM NaCl, 1 mM EDTA, 5 mM MgCl2, pH 7.4, 0.1% BSA). […] The basal and maximal stimulated binding is determined in absence and presence of 1 μM (hCB2) or 10 μM (hCB1) Win 55, 212-2 respectively. The membranes are pre-incubated for 5 minutes with 56.25 μM (hCB2) or 112.5 μM (hCB1) GDP prior to distribution in plates (15 μM (hCB2) or 30 μM (hCB1) GDP final). The plates are vortexed and incubated for 60 minutes at room temperature, filtered on Unifilters GF/B (presoaked in water) with the Tomtec or Packard harvester using 3 ml of wash buffer (50 mM Tris, 5 mM MgCl2, 50 mM NaCl, pH 7.0). The filters are dried for 1 hour at 55° C. The radioactivity (cpm) is counted in a TopCount (Packard) after adding 65 μl/well of MS-20 scintillation liquid. Antagonist reversal studies are done in the same way except that (a) an agonist dose-response curve is done in the presence of a constant concentration of antagonist, or (b) an antagonist dose-response curve is done in the presence of a constant concentration of agonist.

T1 sequence (P21554 whole entry): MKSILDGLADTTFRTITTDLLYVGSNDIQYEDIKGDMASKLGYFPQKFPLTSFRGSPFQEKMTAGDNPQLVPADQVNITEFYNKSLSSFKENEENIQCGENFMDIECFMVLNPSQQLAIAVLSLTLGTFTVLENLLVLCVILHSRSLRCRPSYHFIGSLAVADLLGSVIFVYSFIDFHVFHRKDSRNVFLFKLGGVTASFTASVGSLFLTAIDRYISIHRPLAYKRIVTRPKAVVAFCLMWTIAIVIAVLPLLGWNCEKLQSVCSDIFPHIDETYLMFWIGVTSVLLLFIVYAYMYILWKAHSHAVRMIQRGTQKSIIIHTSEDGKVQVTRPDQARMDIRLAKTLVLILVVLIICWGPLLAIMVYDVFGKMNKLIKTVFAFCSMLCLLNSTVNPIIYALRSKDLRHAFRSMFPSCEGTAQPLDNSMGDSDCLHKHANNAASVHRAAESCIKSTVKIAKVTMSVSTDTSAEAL

CNCCN(C)C(=O)c1ccc2c(c1)c1c(n2C)CCC(C2CCOCC2)C1 (stereo not shown) [N,9-dimethyl-N-(2-methylaminoethyl)-6-(oxan-4-yl)-5,6,7,8-tetrahydrocarbazole-3-carboxamide]
Ki [1]: > 8720 nM

Cn1c2c(c3cc(C(=O)NCCF)ccc31)CC(C1CCOCC1)CC2 (stereo not shown) [N-(2-fluoroethyl)-9-methyl-6-(oxan-4-yl)-5,6,7,8-tetrahydrocarbazole-3-carboxamide]
Ki [1]: 659 nM

CCN(CC(=O)NCC#N)C(=O)c1ccc2c(c1)c1c(n2C)CCC(C2CCOCC2)C1 (stereo not shown) [N-(cyanomethylcarbamoylmethyl)-N-ethyl-9-methyl-6-(oxan-4-yl)-5,6,7,8-tetrahydrocarbazole-3-carboxamide]
Ki [1]: 333 nM

CN(C(=O)c1ccc2c(c1)c1c(n2C)CCC(C2CCOCC2)C1)C1(C(=O)NC2CC2)CC1 (stereo not shown) [N-[1-(cyclopropylcarbamoyl)cyclopropyl]-N,9-dimethyl-6-(oxan-4-yl)-5,6,7,8-tetrahydrocarbazole-3-carboxamide]
Ki [1]: 371 nM

CN(CCC(=O)NC1CC1)C(=O)c1ccc2c(c1)c1c(n2C)CCC(C2CCOCC2)C1 (stereo not shown) [N-[2-(cyclopropylcarbamoyl)ethyl]-N,9-dimethyl-6-(oxan-4-yl)-5,6,7,8-tetrahydrocarbazole-3-carboxamide]
Ki [1]: 655 nM

Cn1c2c(c3cc(C(=O)NCCCC(=O)NC4CC4)ccc31)CC(C1CCOCC1)CC2 (stereo not shown) [N-[3-(cyclopropylcarbamoyl)propyl]-9-methyl-6-(oxan-4-yl)-5,6,7,8-tetrahydrocarbazole-3-carboxamide]
Ki [1]: 1440 nM

CCN(CC(=O)NC1(C#N)CC1)C(=O)c1ccc2c(c1)c1c(n2C)CCC(C2CCOCC2)C1 (stereo not shown) [N-[(1-cyanocyclopropyl)carbamoylmethyl]-N-ethyl-9-methyl-6-(oxan-4-yl)-5,6,7,8-tetrahydrocarbazole-3-carboxamide]
Ki [1]: > 1170 nM

C[C@@H](C(=O)NCCF)N(C)C(=O)c1ccc2c(c1)c1c(n2C)CCC(C2CCOCC2)C1 (stereo partly drawn) [N-[(1S)-1-(2-fluoroethylcarbamoyl)ethyl]-N,9-dimethyl-6-(oxan-4-yl)-5,6,7,8-tetrahydrocarbazole-3-carboxamide]
Ki [1]: > 1400 nM

C[C@@H](C(=O)NC1CC1)N(C)C(=O)c1ccc2c(c1)c1c(n2C)CCC(C2CCOCC2)C1 (stereo partly drawn) [N-[(1S)-1-(cyclopropylcarbamoyl)ethyl]-N,9-dimethyl-6-(oxan-4-yl)-5,6,7,8-tetrahydrocarbazole-3-carboxamide]
Ki [1]: > 3530 nM

CCNC(=O)CN(CC)C(=O)c1ccc2c(c1)c1c(n2CCO)CCC(C2CCOCC2)C1 (stereo not shown) [N-ethyl-N-(ethylcarbamoylmethyl)-9-(2-hydroxyethyl)-6-(oxan-4-yl)-5,6,7,8-tetrahydrocarbazole-3-carboxamide]
EC50 [2]: > 3330 nM
Emax [2]: > 83%

CCNC(=O)CN(CC)C(=O)c1ccc2c(c1)c1c(n2CC(=O)NC)CCC(C2CCOCC2)C1 (stereo not shown) [N-ethyl-N-(ethylcarbamoylmethyl)-9-(methylcarbamoylmethyl)-6-(oxan-4-yl)-5,6,7,8-tetrahydrocarbazole-3-carboxamide]
EC50 [2]: > 30000 nM
Emax [2]: > 9%

CCS(=O)(=O)n1c2c(c3cc(C(=O)N4CCC[C@@H](O)C4)ccc31)CC(C1CCOCC1)CC2 (stereo partly drawn) [[9-ethylsulfonyl-6-(oxan-4-yl)-5,6,7,8-tetrahydrocarbazol-3-yl]-[(3R)-3-hydroxy-1-piperidyl]methanone]
EC50 [2]: 1760 nM
Emax [2]: 104%

CCS(=O)(=O)n1c2c(c3cc(C(=O)N4CC[C@@H](O)C4)ccc31)CC(C1CCOCC1)CC2 (stereo partly drawn) [[9-ethylsulfonyl-6-(oxan-4-yl)-5,6,7,8-tetrahydrocarbazol-3-yl]-[(3R)-3-hydroxypyrrolidin-1-yl]methanone]
EC50 [2]: > 3160 nM
Emax [2]: > 89%

CCS(=O)(=O)n1c2c(c3cc(C(=O)N4CC[C@H](O)C4)ccc31)CC(C1CCOCC1)CC2 (stereo partly drawn) [[9-ethylsulfonyl-6-(oxan-4-yl)-5,6,7,8-tetrahydrocarbazol-3-yl]-[(3S)-3-hydroxypyrrolidin-1-yl]methanone]
EC50 [2]: 4560 nM
Emax [2]: 105%

Source: US20090062251A1, “Novel Compounds 002” (ASTRAZENECA AB, priority 2007, published 2009)
